Measurements as given in patent US8158792B2, “Spiropiperidines for use as tryptase inhibitors” (Janssen Pharmaceutica N.V., priority 2007, dated 2012).

Biological target: human lung tryptase
Experiment: β-Tryptase In-Vitro Enzyme Assay
Format: biochemical
Conditions: human lung tryptase 1 nM, substrate H-D-HHT-Ala-Arg-pNa 500 μM, pH 7.4, room temperature
Description: The β-tryptase assay was conducted with human lung tryptase (Cortex Biochem #CP3033) in an aqueous buffer (10 mM Tris, 10 mM Hepes, 150 mM NaCl, 0.1% PEG 8000, pH 7.4) using the chromogenic substrate H-D-HHT-Ala-Arg-pNa. […] Percent inhibition was calculated by comparing the initial reaction velocity of samples without inhibitor to those with inhibitor. The initial reaction velocities were analyzed using Microsoft Excel.

**Q.** `CN(C)c1ccc(C(=O)N2CCC3(CC2)COc2ccc(CN)cc23)cc1` [Cpd 55, 1-(4-dimethylamino-phenyl)carbonyl-5′-aminomethyl-spiro[piperidine-4,3′-(2H)-benzo[b]furan]] was tested. Which IC50 did it give?
**A.** 1000 nM

**Q.** Which IC50 does the source give for `C[N+](C)(C)Cc1ccc2c(c1)C1(CCN(C(=O)c3ccc(C#Cc4ccccc4)o3)CC1)CO2` [Cpd 297, 1-(5-phenylethynyl-furan-2-yl)carbonyl-spiro[piperidine-4,3′-(2H)-benzo[b]furan]-5′-[methyl-(trimethyl)ammonium]] here?
**A.** 9600 nM

**Q.** Which IC50 does the source give for `NCc1ccc2c(c1)C1(CCN(C(=O)c3ccc(COc4ccc(F)cc4)o3)CC1)CO2` [Cpd 154, 1-[5-(4-fluoro-phenoxymethyl)-furan-2-yl]carbonyl-5′-aminomethyl-spiro[piperidine-4,3′-(2H)-benzo[b]furan]] here?
**A.** 260 nM

**Q.** Which IC50 does the source give for `NCc1ccc2c(c1)C1(CCN(C(=O)c3ccc(C#Cc4ccccc4)o3)CC1)CN2S(=O)(=O)c1cccs1` [Cpd 358, 1-(5-phenylethynyl-furan-2-yl)carbonyl-1′-thien-2-ylsulfonyl-5′-aminomethyl-spiro[piperidine-4,3′-(2H)-indole]] here?
**A.** 26 nM

**Q.** Which IC50 does the source give for `COc1ccc(/C=C/C(=O)N2CCC3(CC2)COc2ccc(CN)cc23)cc1` [Cpd 185, (E)-1-(4-methoxy-phenylethenyl)carbonyl-5′-aminomethyl-spiro[piperidine-4,3′-(2H)-benzo[b]furan]] here?
**A.** 1500 nM

**Q.** For `NCc1ccc2c(c1)C1(CCN(C(=O)c3ccc4c(c3)S(=O)(=O)c3ccccc3C4=O)CC1)CO2` [Cpd 7, 1-(9-oxo-10,10-dioxo-thioxanthen-3-yl)carbonyl-5′-aminomethyl-spiro[piperidine-4,3′-(2H)-benzo[b]furan]], which IC50 is on record?
**A.** 780 nM

**Q.** `NCc1ccc2c(c1)C1(CCN(C(=O)c3ccc(C#Cc4ccccc4)o3)CC1)CN2S(=O)(=O)c1ccsc1` [Cpd 359, 1-(5-phenylethynyl-furan-2-yl)carbonyl-1′-thien-3-ylsulfonyl-5′-aminomethyl-spiro[piperidine-4,3′-(2H)-indole]] was tested. Which IC50 did it give?
**A.** 15 nM

**Q.** `NCc1ccc2c(c1)C1(CCN(C(=O)c3ccc(C#Cc4ccccc4F)o3)CC1)CO2` [Cpd 35, 1-[5-(2-fluoro-phenylethynyl)-furan-2-yl]carbonyl-5′-aminomethyl-spiro[piperidine-4,3′-(2H)-benzo[b]furan]] was tested. Which IC50 did it give?
**A.** 4.3 nM

**Q.** `NCc1ccc2c(c1)C1(CCN(C(=O)c3ccc(-c4ccccc4)o3)CC1)CO2` [Cpd 130, 1-(5-phenyl-furan-2-yl)carbonyl-5′-aminomethyl-spiro[piperidine-4,3′-(2H)-benzo[b]furan]] was tested. Which IC50 did it give?
**A.** 28 nM

**Q.** Which IC50 does the source give for `CC(=O)N1CC2(CCN(C(=O)c3ccc(C#Cc4ccccc4)o3)CC2)c2cc(CN)ccc21` [Cpd 339, 1-(5-phenylethynyl-furan-2-yl)carbonyl-1′-methylcarbonyl-5′-aminomethyl-spiro[piperidine-4,3′-(2H)-indole]] here?
**A.** 15 nM

**Q.** `COc1cccc(CCC(=O)N2CCC3(CC2)COc2ccc(CN)cc23)c1` [Cpd 101, 1-(3-methoxy-phenethyl)carbonyl-5′-aminomethyl-spiro[piperidine-4,3′-(2H)-benzo[b]furan]] was tested. Which IC50 did it give?
**A.** 2400 nM

**Q.** With `NCc1ccc2c(c1)C1(CCN(C(=O)c3sc4ccccc4c3Cl)CC1)CO2` [Cpd 166, 1-(3-chloro-benzo[b]thien-2-yl)carbonyl-5′-aminomethyl-spiro[piperidine-4,3′-(2H)-benzo[b]furan]] as the molecule, how does the IC50 read?
**A.** 71 nM

**Q.** Which IC50 does the source give for `NCc1ccc2c(c1)C1(CCN(C(=O)/C=C/c3ccccc3O)CC1)CO2` [Cpd 272, (E)-1-(2-hydroxy-phenylethenyl)carbonyl-5′-aminomethyl-spiro[piperidine-4,3′-(2H)-benzo[b]furan]] here?
**A.** 190 nM

**Q.** `NCc1ccc2c(c1)C1(CCN(C(=O)/C=C/c3c(F)cccc3F)CC1)CO2` [Cpd 195, (E)-1-(2,6-difluoro-phenylethenyl)carbonyl-5′-aminomethyl-spiro[piperidine-4,3′-(2H)-benzo[b]furan]] was tested. Which IC50 did it give?
**A.** 120 nM

**Q.** How did the IC50 turn out when `O=CNCc1ccc2c(c1)C1(CCN(C(=O)c3ccc(C#Cc4ccccc4)o3)CC1)CO2` [Cpd 304, 1-(5-phenylethynyl-furan-2-yl)carbonyl-5′-formylaminomethyl-spiro[piperidine-4,3′-(2H)-benzo[b]furan]] was run?
**A.** 30 nM

**Q.** For `NCc1ccc2c(c1)C1(CCN(C(=O)c3csc(-c4cccnc4)n3)CC1)CO2` [Cpd 121, 1-(2-pyridin-3-yl-thiazol-4-yl)carbonyl-5′-aminomethyl-spiro[piperidine-4,3′-(2H)-benzo[b]furan]], which IC50 is on record?
**A.** 510 nM

**Q.** For `NCc1ccc2c(c1)C1(CCN(C(=O)c3ccc(F)c(Br)c3)CC1)CO2` [Cpd 31, 1-(3-bromo-4-fluoro-phenyl)carbonyl-5′-aminomethyl-spiro[piperidine-4,3′-(2H)-benzo[b]furan]], which IC50 is on record?
**A.** 55 nM

**Q.** How did the IC50 turn out when `N=C(NN)c1ccc2c(c1)C1(CCN(C(=O)c3ccc(C#Cc4ccccc4)o3)CC1)CO2` [Cpd 307, 1-(5-phenylethynyl-furan-2-yl)carbonyl-5′-[hydrazino(imino)methyl]-spiro[piperidine-4,3′-(2H)-benzo[b]furan]] was run?
**A.** 60 nM

**Q.** Which IC50 does the source give for `NCc1ccc2c(c1)C1(CCN(C(=O)/C=C/c3cccc(F)c3)CC1)CO2` [Cpd 161, (E)-1-(3-fluoro-phenylethenyl)carbonyl-5′-aminomethyl-spiro[piperidine-4,3′-(2H)-benzo[b]furan]] here?
**A.** 53 nM

**Q.** With `CCC(C)Sc1sc(C(=O)N2CCC3(CC2)COc2ccc(CN)cc23)c2c1C(=O)CC(C)(C)C2` (centres unmarked) [Cpd 231, 1-(3-sec-butylthio-4-oxo-6,6-dimethyl-6,7-dihydro-5H-benzo[c]thien-1-yl)carbonyl-5′-aminomethyl-spiro[piperidine-4,3′-(2H)-benzo[b]furan]] as the molecule, how does the IC50 read?
**A.** 91 nM

**Q.** `CSc1sc(C(=O)N2CCC3(CC2)CN(S(=O)(=O)O)c2ccc(CN)cc23)c2ccccc12` [Cpd 350, 1-(3-methylthio-benzo[c]thien-1-yl)carbonyl-1′-hydroxysulfonyl-5′-aminomethyl-spiro[piperidine-4,3′-(2H)-indole]] was tested. Which IC50 did it give?
**A.** 25 nM

**Q.** Which IC50 does the source give for `COc1ccccc1/C=C/C(=O)N1CCC2(CC1)COc1ccc(CN)cc12` [Cpd 194, (E)-1-(2-methoxy-phenylethenyl)carbonyl-5′-aminomethyl-spiro[piperidine-4,3′-(2H)-benzo[b]furan]] here?
**A.** 150 nM

**Q.** Which IC50 does the source give for `CNNC1CC(S(=O)(=O)N2CC3(CCN(C(=O)c4ccc(C#Cc5ccccc5)o4)CC3)c3cc(CN)ccc32)CS1(=O)=O` (centres unmarked) [Cpd 338, 1-(5-phenylethynyl-furan-2-yl)carbonyl-1′-[5-(N′-methyl-hydrazino)-1,1-dioxo-3,4,5-trihydro-(2H)-thien-3-yl]sulfonyl-5′-aminomethyl-spiro[piperidine-4,3′-(2H)-indole]] here?
**A.** 73 nM

**Q.** With `CS(=O)(=O)c1cccc(C(=O)N2CCC3(CC2)COc2ccc(CN)cc23)c1` [Cpd 72, 1-(3-methylsulfonyl-phenyl)carbonyl-5′-aminomethyl-spiro[piperidine-4,3′-(2H)-benzo[b]furan]] as the molecule, how does the IC50 read?
**A.** 520 nM

**Q.** With `NCc1ccc2c(c1)C1(CCN(C(=O)c3ccc(Cn4cnc5ccccc54)cc3)CC1)CO2` [Cpd 10, 1-(4-benzoimidazol-1-ylmethyl-phenyl)carbonyl-5′-aminomethyl-spiro[piperidine-4,3′-(2H)-benzo[b]furan]] as the molecule, how does the IC50 read?
**A.** 3000 nM

**Q.** `Cc1occc1C(=O)NCc1ccc(C(=O)N2CCC3(CC2)COc2ccc(CN)cc23)o1` [Cpd 220, 1-[5-(2-methyl-furan-3-yl-carbonylaminomethyl)-furan-2-yl]carbonyl-5′-aminomethyl-spiro[piperidine-4,3′-(2H)-benzo[b]furan]] was tested. Which IC50 did it give?
**A.** 690 nM

**Q.** With `NCc1ccc2c(c1)C1(CCN(C(=O)c3cc4ccccc4s3)CC1)CO2` [Cpd 110, 1-benzothien-2-ylcarbonyl-5′-aminomethyl-spiro[piperidine-4,3′-(2H)-benzo[b]furan]] as the molecule, how does the IC50 read?
**A.** 37 nM

**Q.** Which IC50 does the source give for `NCc1ccc2c(c1)C1(CCN(C(=O)c3cc4ccsc4s3)CC1)CO2` [Cpd 233, 1-thieno[2,3-b]thien-2-ylcarbonyl-5′-aminomethyl-spiro[piperidine-4,3′-(2H)-benzo[b]furan]] here?
**A.** 82 nM

**Q.** How did the IC50 turn out when `COCCOc1cccc(/C=C/C(=O)N2CCC3(CC2)COc2ccc(CN)cc23)c1` [Cpd 291, (E)-1-[3-(2-methoxy-ethoxy)-phenylethenyl]carbonyl-5′-aminomethyl-spiro[piperidine-4,3′-(2H)-benzo[b]furan]] was run?
**A.** 400 nM

**Q.** `N=C(NO)c1ccc2c(c1)C1(CCN(C(=O)c3ccc(C#Cc4ccccc4)o3)CC1)CO2` [Cpd 306, 1-(5-phenylethynyl-furan-2-yl)carbonyl-5′-[hydroxyamino(imino)methyl]-spiro[piperidine-4,3′-(2H)-benzo[b]furan]] was tested. Which IC50 did it give?
**A.** 71 nM

**Q.** `Cc1cc(C(=O)NCc2ccc(C(=O)N3CCC4(CC3)COc3ccc(CN)cc34)o2)c(C)o1` [Cpd 156, 1-[5-(2,5-dimethyl-furan-3-yl-carbonylaminomethyl)-furan-2-yl]carbonyl-5′-aminomethyl-spiro[piperidine-4,3′-(2H)-benzo[b]furan]] was tested. Which IC50 did it give?
**A.** 130 nM

**Q.** Which IC50 does the source give for `NCc1ccc2c(c1)C1(CCN(C(=O)c3ccc(-c4ccccc4)s3)CC1)CO2` [Cpd 114, 1-(5-phenyl-thien-2-yl)carbonyl-5′-aminomethyl-spiro[piperidine-4,3′-(2H)-benzo[b]furan]] here?
**A.** 240 nM

**Q.** Which IC50 does the source give for `NCc1ccc2c(c1)C1(CCN(C(=O)Cc3cccc(F)c3)CC1)CO2` [Cpd 80, 1-(3-fluoro-benzyl)carbonyl-5′-aminomethyl-spiro[piperidine-4,3′-(2H)-benzo[b]furan]] here?
**A.** 2700 nM

**Q.** Which IC50 does the source give for `NCCc1ccc2c(c1)C1(CCN(C(=O)c3ccc(C#Cc4ccccc4)o3)CC1)CO2` [Cpd 314, 1-(5-phenylethynyl-furan-2-yl)carbonyl-5′-aminoethyl-spiro[piperidine-4,3′-(2H)-benzo[b]furan]] here?
**A.** 1300 nM

**Q.** Which IC50 does the source give for `CCN1CC2(CCN(C(=O)c3ccc(C#Cc4ccccc4)o3)CC2)c2cc(CN)ccc21` [Cpd 320, 1-(5-phenylethynyl-furan-2-yl)carbonyl-1′-ethyl-5′-aminomethyl-spiro[piperidine-4,3′-(2H)-indole]] here?
**A.** 280 nM
